Experimental data published in patent publication EP0108452A1, “Treatment of gastric inflammatory disease with cytoprotective prostaglandins and histamine-2 blocking anti-secretory agents” (THE PROCTER & GAMBLE COMPANY, priority 1982, dated 1984).

System: Male Sprague-Dawley rats
Assay: Cysteamine duodenal ulcer model (cysteamine gastric ulcer model)
Type: in vivo
Settings: PG-V 5 mg/kg; for % of Cntrl.: damage grading score relative to veh. cntrl.; for % of Cntrl. / % of Redc'n.: oral x3; for Damage Grading Score: oral, x3 at 0, 4 and 8 hours after cysteamine 500 mg/kg s.c., lower score = greater protection; for % of Redc'n.: reduction of damage grading score vs veh. cntrl.
Procedure: Male Sprague-Dawley rats weighing between 180 and 230 g are fasted for 24 hours during which time they are given ad libitum access to tap water. At the end of the 24 hour fast period, 500 mg/kg of cysteamine is administered subcutaneously. At the same time, the drug or control treatment is begun. The drug or control treatment consists of administering the drug or vehicle/control at 24 hours, 28 hours, and 32 hours after the fast has begun. That is, the drug, or vehicle/control treatment is administered at 0, 4 and 8 hours after the cysteamine. 48 hours after the fasting has begun, 24 hours after the administration of cysteamine, the rats are anesthetized and sacrificed. After sacrifice, the abdominal cavity is opened, and the stomach and approximately 2 inches of duodenum are excised and removed from the rat. They are placed on a 4" x 4" labelled index card. Care must be taken not to disturb the duodenum as this could affect the grading. The stomach and duodenum are cut open along the greater curvature and longitudinally along the anti-mesenteric side, respectively. The duodenum is carefully spread out without altering the orientation of the lesions and the thickness of the mucosa. They are viewed through a stereo microscope at approximately 7x magnification for gross examination of the stomach, pylorus and duodenal surface. For each duodenum, the amount of erythema, the amount of edema, a total lesion area and the severity of the lesions are evaluated according to the grading scale in Table 1. This is also repeated for the stomach. This information is recorded. The lower the score, the greater the protection. The lowest score which an agent can achieve in this model is the maximal intrinsic activity for this agent in this model. The smallest dosage of this agent which achieves this lowest score is the lowest dosage or level of administration which yields maximal intrinsic activity for this agent. [table] In Examples I-VIII, all were conducted in accordance with the cysteamine gastric ulcer model described above. The vehicle was 0.75% polyoxyethylene (20) sorbitan mono-oleate (Tween 80). All dosages were at a rate of 2.5 ml/kg. The treatment compositions were orally dosed at a volume of 2.5 mllkg, in accordance with the model, at 24, 28 and 32 hours after the beginning of the fast, or 0, 4 and 8 hours after the subcutaneous administration of cysteamine. In preparing the prostaglandin + […] compositions, the selected amount of prostaglandin and selected amount of cimetidine were added to a volume which was equivalent to 2.5 ml/kg for each animal. This was then given to the animal at 24, 28 and 32 hours respectively, after the beginning of the fast. The damage grading score was in accordance with the table provided in the cysteamine gastric ulcer model.

[1] = Example I, Cimetidine 25 mg/kg, veh. cntrl. 9.0 ± 2.2
[2] = Example II, Cimetidine 25 mg/kg
[3] = Example II, Cimetidine 25 mg/kg, veh. cntrl. 15.5 ± 4.5
[4] = Example III, Cimetidine 50 mg/kg
[5] = Example III, Cimetidine 50 mg/kg, veh. cntrl. 18.3 ± 3.7

| SMILES | % of Cntrl. (Example I, Cimetidine 25 mg/kg) [%] | Damage Grading Score [1] | % of Redc'n. (Example I, Cimetidine 25 mg/kg) [%] | % of Cntrl. [2] [%] | Damage Grading Score [3] | % of Redc'n. [2] [%] | % of Cntrl. [4] [%] | Damage Grading Score [5] | % of Redc'n. [4] [%] |
| --- | --- | --- | --- | --- | --- | --- | --- | --- | --- |
| CCCCCC(=O)C#C[C@H]1CCC(=O)[C@@H]1OCCCCCC(=O)O [PG-V, 9,15 dioxo-7-oxa-prost-13,14-ynoic acid] | 140 | 12.6 ± 2.6 | -40 | 106 | 16.4 ± 3.3 | -6 | 117 | 21.5 ± 4.6 | -17 |
| CN/C(=N/CCSCc1nc[nH]c1C)NC#N [Cimetidine] | 133 | 12.0 ± 2.0 | -33 | 159 | 24.6 ± 1.3 | -59 | 61 | 11.1 ± 3.0 | 39 |
